Key:
[1] = system: Male C57BL/6 mice; experiment: Cisplatin-induced nephrotoxicity in mice; type: in vivo, mouse; conditions: cisplatin 20 mg/kg i.p., FIG. 10
Experimental: (§1) Male C57BL/6 mice were given a single intraperitoneal injection of 20 mg/kg of cisplatin. Twenty nanomoles of PACAP38 were given intraperitoneally 1 hour before the injection of cisplatin and additional doses were given at 24 and 48 hours after the initial dose. The control group of mice was injected intraperitoneally with the same volume of saline as for the injections of cisplatin and PACAP38 on the same schedule. The mice were euthanized 24 hours after the final injection of PACAP38. Each value represents the mean plus/minus the standard error of four determinations. ***p<0.001 and **p<0.01 compared to the group treated only with cisplatin.
as §1, with “PACAP38. TNF-α was extracted from one kidney of each mouse and quantified with an enzyme-linked immunosorbent assay.” for “PACAP38.”
Male C57BL/6 mice were given a single intraperitoneal injection of 20 mg/kg of cisplatin. Twenty nanomoles of PACAP38 were given intraperitoneally 1 hour before the injection of cisplatin and additional doses were given at 24 and 48 hours after the initial dose. The control group of mice were injected intraperitoneally with the same volume of saline as for the injections of cisplatin and PACAP38 on the same schedule. The mice were euthanized 24 hours after the final injection of PACAP38, and the kidneys were removed and fixed in 10% formalin. The fixed sections were stained with hematoxylin and eosin. The sections of the kidneys from control mice show intact renal tubular epithelial cells and well-preserved brush border membranes. The kidneys from mice treated with cisplatin had extensive tubular damage, tubular dilations, intratubular debris, and intratubular casts. […] Tubular damage was more pronounced in the outer cortex in the cisplatin treated mice. The photomicrographs on the left side were made at a lower magnification (×160) than the photomicrographs on the right side (×320). The results described in FIGS. 5, 6, 7, and 8 were from the same experiment.
as §1, with “six” for “four”
as §1, with “The cytoprotective effect of PACAP38 against cisplatin-induced nephrotoxicity was also seen in a common in vivo model. Male” for “Male”, “PACAP38.” for “PACAP38. Each value represents the mean plus/minus the standard error of four determinations. ***p<0.001 and **p<0.01 compared to the group treated only with cisplatin.”

[2] = system: human erythroleukemia cells; experiment: Thalidomide-induced apoptotic cell death of erythroleukemia cells; type: cell-based; conditions: thalidomide 48 hours, FIG. 20
Experimental: The human myeloid leukemia cells were cultured in RPMI 1640 medium supplemented with 10% non-inactivated fetal bovine serum. The effects of PACAP38, [D-Ser^2]PACAP38 and VIP on apoptotic cell death was assessed by the quantitative determination of cytoplasmic histone-associated DNA-fragmentation (mono- and oligonucleosomes) after exposure to thalidomide for 48 hours. Each value represents the mean plus/minus the standard deviation of four determinations. **p<0.01 and *p<0.05 compared to the thalidomide-treated (control) cells.

[3] = molecular target: T1, PAC1 receptor (Homo sapiens, UniProt P41586); conditions: cited from earlier work
T1 sequence (P41586 21-468): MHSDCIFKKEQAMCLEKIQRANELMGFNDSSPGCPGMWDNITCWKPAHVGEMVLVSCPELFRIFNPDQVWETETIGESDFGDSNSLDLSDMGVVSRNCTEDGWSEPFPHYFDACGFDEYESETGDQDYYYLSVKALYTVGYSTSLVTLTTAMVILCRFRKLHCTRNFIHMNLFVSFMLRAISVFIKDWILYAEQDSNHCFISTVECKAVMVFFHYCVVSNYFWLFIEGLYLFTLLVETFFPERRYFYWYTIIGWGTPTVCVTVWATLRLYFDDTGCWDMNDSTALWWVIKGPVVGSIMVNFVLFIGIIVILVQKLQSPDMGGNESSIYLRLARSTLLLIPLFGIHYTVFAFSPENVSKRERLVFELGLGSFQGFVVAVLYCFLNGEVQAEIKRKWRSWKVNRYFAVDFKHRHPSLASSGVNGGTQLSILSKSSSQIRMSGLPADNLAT

## VIP
[1]
  relative potency as cytoprotectants against cisplatin-induced impairment of kidney function (serum creatinine): less potent
[2]
  effect on thalidomide-induced apoptotic cell death: dose-dependent enhancement
[3]
  affinity for the PAC1 receptor relative to PACAP: 1,000 times less

— patent US20110268789A1, “USE OF PITUITARY ADENYLATE CYCLASE-ACTIVATING POLYPEPTIDE (PACAP) AND PACAP ANALOGS AS ADJUNCTIVE TREATMENTS WITH ANTICANCER AGENTS” (priority 2008, published 2011)
